The values below come from US20100120902A1, “STANDARIZED BIOACTIVE HERBAL EXTRACTS” (RANBAXY LABORATORIES LIMITED, priority 2007, published 2010).

In one data set the test system is supernatant cells. The data set can be described thus: Cell viability/toxicity test (MTT assay). The class given is cell-based. The procedure: Viability of cells was analyzed using (3-4,5-dimethylthiazol-2-yl)-2,5-diphenyl-tetrazolium bromide (MTT) assay (Mosmann T, J Immunol. Meth., 65 (1983), 55-63) with supernatant cells by adding 0.1 mL of MTT (0.25 mg/mL) with 0.1 mL of supernatant cells. The cells were incubated at 37° C. for about 2-4 hours, and then the optical density was measured at 490-650 nm.
Background: Tetrazolium assays rely on reduction of a dye to a coloured formazan, in cell work by metabolically active cells.

For data set [1], the system named is TNF-α, IL-1β and iNOS mRNA expression in RAW 264.7 cells. The data set can be described thus: In-vitro effect on gene expression of inflammatory mediators (semi-quantitative RT-PCR). The class given is cell-based, mouse. The note with it: 12 hrs incubation.
Data set [2] relates to IL-1β release from PBM cells. The data set can be described thus: In-vitro IL-1β release inhibition assay from PBMCs (LPS, ELISA). The note with it: Homo sapiens, PBMC; LPS stimulated PBM cells; read-out: IC50 against IL-1β release. Format: cell-based. The protocol:
(§1) Blood (20 ml) was collected from healthy volunteers in a heparanised vial with 10 ml of lymphoprep (Nycomed pharma, AS) and centrifuged at 1800 rpm for 30 minutes at 23° C., mononuclear cell containing buffy layer was transferred to another tube and washed three times with PBS (phosphate buffered saline) and centrifuged at 1500 rpm for 15 minutes. Pellet cells were resuspended in 2 ml of RPMI-1640 medium (Biochrom, AG) supplemented with 25 mM HEPES [N-(2-hydroxyethyl)piperazine-N′-(2-ethanesulfonic acid)], L-glutamine (2 mM), penicillin (100 U/ ml), streptomycin (100 μg/ml) and 10% inactivated FCS (fetal calf serum) and, finally viable cells were counted.
(§2) PBM cells were adjusted to 1×10^6 cells/ml number in RPMI 1640 medium, (Biochrom AG) and 100 μl volume of this cell suspension per well was plated in a 96 well plate. […] Twenty μl of DMSO control and each concentration of these prepared test samples were added to corresponding wells in a 96 well plate. The plate was incubated for 30 minutes at room temperature on rotatory shaker at 200 rpm and 50 μl of lipopolysacchride (LPS) (4 μg/ml) was added to each well, except negative LPS control wells. […] A dose response curve was generated with different concentrations of test sample and the IC50 was calculated using Graph Pad Prism. […]
In general terms: In an ELISA, binding on a coated surface is turned into a signal by an enzyme label.

The subject of data set [3] is TNF-α release from PBM cells. The data set can be described thus: In-vitro TNF-α release inhibition assay from PBMCs (LPS, ELISA). The class given is cell-based. The note with it: Homo sapiens, PBMC; LPS stimulated PBM cells. The protocol:
as §1, §2

In data set [4] the test system is PBM cells (peripheral blood mononuclear cells). The data set can be described thus: In-vitro mitogen induced lymphocyte proliferation assay (3H-thymidine uptake). Format: cell-based. The note with it: Homo sapiens, PBMC; 20 μg/ml. The protocol: Blood (20 ml) was collected from healthy volunteers in a […] 10 ml of lymphoprep (Nycomed pharma, AS) and centrifuged at 1800 rpm for 30 minutes at 23° C., mononuclear cell containing buffy layer was transferred to another tube and washed three times with PBS (phosphate buffered saline) and centrifuged at 1500 rpm for 15 minutes. […] PBM cells were adjusted to a concentration of 1×10^6 cells/ml in RPMI buffer (Biochrom AG) and 2×10^5 cells/well were seeded in a total volume of 200 μl to a 96 well U bottom plate. […] Cultures were incorporated with 0.5 μCi[3H], 18 hours before the completion of incubation and cells were harvested on glass fiber filter using multi-well harvester and thymidine uptake was determined by measuring radioactivity on liquid scintillation counter and the mean count per minute (CPM) of triplicate was calculated.

The subject of data set [5] is LTB4 release from neutrophils. The data set can be described thus: In-vitro leukotriene B4 (LTB4) release assay (A23187, ELISA). The note with it: Homo sapiens, Neutrophil; A23187 stimulated. Format: cell-based. The procedure: Neutrophils were isolated from freshly drawn human blood after dextran sedimentation and ficoll separation [Hatzelmann and Ullrich, Eur. J. […] Ca^++/Mg^++ (0.25 mM) was added, 3 minutes before the end of incubation with these test samples. Then, 0.3 μg/ml of A23187 (Calcimycin) was added and incubated for further 10 minutes. The reaction was stopped by adding 80 μl of cold methanol and mixture was spun at 3500 rpm for 10 minutes to remove cell debris. The samples were analyzed for LTB4 assay [Hatzelmann and Schudt, J. Pharmacol. Exp. […] (2001), 267-279] using LTB4 ELISA kits (Assay Design Inc., USA). The amount of LTB4 was quantified and percent inhibition in LTB4 release was calculated with respect to control (without test sample) to compute IC50 values.

Data set [6] has as its system formalin induced Phase I and Phase II pain. The data set can be described thus: Analgesic efficacy against formalin test. Format: in vivo, mice. The note with it: 10 mg/kg i.p. The protocol: Thirty minutes later, formalin solution (1% w/v, 25 μL/mice) was injected subplantarly in mice and immediately after injection, duration of mice licking or flicking of the injected paw was recorded for a period of 30 minutes in 5 minute slots. The first five minutes duration constitutes Phase-I pain which is centrally mediated while Phase-II pain which lasts from 10-30 minutes is peripherally mediated pain. Values of each group were expressed as mean±SEM (standard error of mean) and comparison was made with control group using one-way ANOVA followed by Dunnett's multiple test and a p≦0.05 was considered statistically significant.

The test system of data set [7] is IL-2 production in human PBMCs. The note with it: phytohemagglutinin stimulated; Pandey et al 2005; cited from earlier work.
Data set [8] deals with TNF-α production in human PBMCs. The note with it: lipo-polysaccharide induced; Pandey et al 2005; cited from earlier work.
For data set [9], the system named is nuclear factor-(kappa)B and transcription factor AP-1. The note with it: Pandey et al 2005; cited from earlier work.
In data set [10] the test system is LPS induced TNF-α release (plasma). Description: Anti-inflammatory efficacy against endotoxemia. Format: in vivo, female Balb/C mice. The note with it: 10 mg/kg oral. The source says:
One hour later, animals were challenged with LPS (lipopolysacchride). Ninety minutes later, blood was collected and TNF-α was estimated in the plasma using ELISA kit and values for each treatment group was expressed as mean±SEM. Comparison was made with control group using one-way ANOVA followed by Dunnett's multiple test and a p≦0.05 was considered statistically significant.

In data set [11] the test system is carrageenan induced paw edema. Description: Anti-inflammatory efficacy against carrageenan induced paw edema model. The note with it: 5 mg/kg oral, 3 hours post carrageenan. The class given is in vivo, rats. The procedure: One hour later, animals were challenged with carrageenan (1% w/v, 100 μL/rat) subplantarly. The paw edema was recorded 3 hours post carrageenan challenge. Data from each group was expressed as mean±SEM. Change in paw edema in treatment group were compared from vehicle control group using one-way ANOVA followed by Dunnett's multiple comparison test. A p≦0.05 was considered statistically significant.
In general terms: Carrageenan injected into the paw causes an acute inflammation.

Data set [12] concerns carrageenan induced hyperalgesia. Description: Analgesic efficacy against carrageenan induced hyperalgesia. The note with it: 5 mg/kg oral, after 2 hours. The class given is in vivo, wistar rats.
For data set [13], the system named is CFA induced arthritis in ankle joint. Description: Histopathological analysis of CFA induced arthritis in ankle joint. Format: in vivo, Wistar rats. The protocol: At the end of the study (p), animals were euthanized and ankle joints of contra-lateral hind limb were collected for histopathological evaluation Ankle joints were evaluated for the effect on synovial proliferation, inflammation of soft tissues, pannus formation and erosion of cartilage as well as bone (FIG. 13). The changes observed were scored as 0=no change, 1 mild, 2=moderate, 3=marked and 4=severe. The scores for each parameter mentioned above were summed to obtain total histopathological score for each animal.

Data set [14] deals with CFA induced arthritis (contra-lateral paw volume). Description: Antiarthritic efficacy against CFA induced arthritis model. Format: in vivo, Wistar rats. The note with it: 0.2 mg/kg/day. The procedure: Wistar rats were injected with 50 μL of 1 mg/ml solution of Complete Freund's adjuvant (CFA) subplantarly. […] The animals showing 0.30-0.40 ml increase in paw volume of the contralateral paw from the basal were included in the study.
The test sample or vehicle (polyethylene glycol+water 20:80) was administered in two divided doses for 10 days. The paw volume of the animals was recorded on the alternate days. A plot of change in paw volume from day 0 was made and area under the curve (AUC) was calculated using GraphPad Prism software (GraphPad Software Inc, USA, Version 4) for each animal and was averaged in each treatment group.

The next data set concerns CFA induced hyperalgesia. Description: Antihyperalgesic activity against Complete Freund's adjuvant (CFA) induced hyperalgesia. Format: in vivo, rats. The note with it: 5 mg/kg oral, 2 hours post treatment. The procedure:
Basal weight bearing threshold of the rats was determined using Randall Selitto analgesiometer (Ugo Basile, Italy) followed by challenge with Complete Freund's adjuvant (a suspension of desiccated Mycobacterium butyricum in a mixture of paraffin oil and an emulsifying agent, mannide monooleate; 50 μL of 500 μg/ml suspension/animal), injected subplantarly. Twenty four hours later weight-bearing threshold of the animals was recorded as pre-dose values at time 0 hours. […] Two hours post treatment, weight-bearing threshold of the animals was recorded again. […] One group was treated with Incomplete Freund's adjuvant (IFA) and served as negative control group.

Each structure is given as a SMILES string. ≈ marks a conversion by molar mass, not a printed value. Where only a bound is given, the exact number is not on record here.

As a reminder, the IC50 is the midpoint of a concentration-inhibition curve. In general, inhibition refers to the relative decrease from the control value, in per cent. Higher therefore signals a strong effect. Turning to `Cc1c(O)cc2oc3c(c(=O)c2c1O)-c1ccc(O)cc1OC3O` (centres unmarked) [Boeravinone E], in the data set with supernatant cells, the “concentration at 50% viability of tested cells” value came out at 81.5 µg/mL. Also, in data set [1], the “expression of TNF-α, IL-1β and iNOS” value is recorded as “down regulated all the 3 inflammatory mediators”. Also, the results for the IC50 in data set [2], in data set [3] and in [5] were 7 mg/L (≈ 21.3 µM), 7 mg/L (≈ 21.3 µM) and 21.8 mg/L (≈ 66.4 µM), respectively. The inhibition at 20 µg/mL in data set [4] came to 59%.

For `Cc1c(O)cc2oc3c(c(=O)c2c1O)-c1ccccc1OC3O` (centres unmarked) [Boeravinone B], the “concentration at 50% viability of tested cells” value in the data set with supernatant cells amounted to 64.5 µg/mL. Besides, the “expression of TNF-α, IL-1β and iNOS” value in data set [1] is given as “down regulated all the 3 inflammatory mediators”. In addition, the IC50 in [2] is 3.6 mg/L (≈ 11.5 µM); in data set [3], 6.8 mg/L (≈ 21.8 µM); in data set [5], > 100 mg/L. Moreover, in data set [4], testing at 20 µg/mL gave an inhibition of 66%.

Consider `CC(C)=CCN1CCC2(C)c3cc(O)ccc3CC1C2C` (centres unmarked) [Pentazocin], for which, in data set [6], the “percent protection in Phase-I pain” value stood at 40% and the “percent protection in Phase-II pain” value was found to be 50%.

Regarding `COc1cc2oc(-c3ccc(O)cc3)c(OC3OC(CO)C(O)C(O)C3O)c(=O)c2c(O)c1OC` [Bd-I, eupalitin-3-O-beta-D-galactopyranoside], the “production of IL-2 at the protein and mRNA transcript levels” value in data set [7] was “inhibited”. Moreover, in data set [8], the TNF-α production entry is given as “inhibited”. The “activation of DNA binding of nuclear factor-(kappa)B and AP-1” value in data set [9] is “block the activation of DNA binding”.

With `O=c1ncn2nc(Sc3ccc(F)cc3F)ccc2c1-c1c(Cl)cccc1Cl` [Vx745], the “inhibition of LPS response (TNF-α)” value in data set [10] is 59%.

On to `COc1ccc2c(c1)c(CC(=O)O)c(C)n2C(=O)c1ccc(Cl)cc1` [Indomethacin], for which the “inhibition of carrageenan induced paw edema” value in [11] is on record as 48%. For the same molecule, the “inhibition (carrageenan induced hyperalgesia)” value in data set [12] is 66%. In [13] (0.2 mg/kg), the “% inhibition (histopathological score)” value is 62.8%. In data set [13] (0.2 mg/kg/day, FIG. 13 A), the “recruitment of inflammatory cells” value was “completely prevented the recruitment of inflammatory cells”. Also, the Pannus formation result in [13] (0.2 mg/kg/day, FIG. 13 B) is listed as “mild”. In addition, the “inhibitory effect on cartilage degradation” value in [13] (0.2 mg/kg/day, FIG. 13 C) is listed as “prominent”. In data set [14], the paw edema result is listed as “reversal of the paw edema toward basal level”. Moreover, in the data set with CFA induced hyperalgesia, the “reversal of the hyperalgesia induced by CFA” value is on record as 64%.
